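Compound exposure: 48 hours, 5 concentrations, 96-well plates. TGI marks complete inhibition of growth.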
Tests used:
Assay in all cases: growth of human tumour cells (NCI), 48 h
786-0 renal = system: 786-0 renal
A498 renal = system: A498 renal
A549 NSCLC = system: A549 NSCLC
ACHN renal = system: ACHN renal
BT-549 breast = system: BT-549 breast
CAKI-1 renal = system: CAKI-1 renal
CCRF-CEM leukemia = system: CCRF-CEM leukemia
COLO 205 colon = system: COLO 205 colon
DU-145 prostate = system: DU-145 prostate
EKVX NSCLC = system: EKVX NSCLC
HCC-2998 colon = system: HCC-2998 colon
HCT-116 colon = system: HCT-116 colon
HCT-15 colon = system: HCT-15 colon
HL-60(TB) leukemia = system: HL-60(TB) leukemia
HOP-62 NSCLC = system: HOP-62 NSCLC
HOP-92 NSCLC = system: HOP-92 NSCLC
HS 578T breast = system: HS 578T breast
HT29 colon = system: HT29 colon
IGROV1 ovarian = system: IGROV1 ovarian
K-562 leukemia = system: K-562 leukemia
KM12 colon = system: KM12 colon
LOX IMVI melanoma = system: LOX IMVI melanoma
M14 melanoma = system: M14 melanoma
MALME-3M melanoma = system: MALME-3M melanoma
MCF7 breast = system: MCF7 breast
MDA-MB-231 breast = system: MDA-MB-231 breast
MDA-MB-435 = system: MDA-MB-435
MDA-N = system: MDA-N
MOLT-4 leukemia = system: MOLT-4 leukemia
NCI-H226 lung = system: NCI-H226 lung
NCI-H23 lung = system: NCI-H23 lung
NCI-H460 lung = system: NCI-H460 lung
NCI-H522 lung = system: NCI-H522 lung
NCI/ADR-RES ovarian = system: NCI/ADR-RES ovarian
OVCAR-3 ovarian = system: OVCAR-3 ovarian
OVCAR-5 ovarian = system: OVCAR-5 ovarian
OVCAR-8 ovarian = system: OVCAR-8 ovarian
PC-3 prostate = system: PC-3 prostate
RPMI-8226 leukemia = system: RPMI-8226 leukemia
SF-268 CNS = system: SF-268 CNS
SF-295 CNS = system: SF-295 CNS
SF-539 CNS = system: SF-539 CNS
SK-MEL-2 melanoma = system: SK-MEL-2 melanoma
SK-MEL-28 melanoma = system: SK-MEL-28 melanoma
SK-MEL-5 melanoma = system: SK-MEL-5 melanoma
SK-OV-3 ovarian = system: SK-OV-3 ovarian
SN12C renal = system: SN12C renal
SNB-19 CNS = system: SNB-19 CNS
SNB-75 CNS = system: SNB-75 CNS
SW-620 colon = system: SW-620 colon
TK-10 renal = system: TK-10 renal
U251 CNS = system: U251 CNS
UACC-257 melanoma = system: UACC-257 melanoma
UACC-62 melanoma = system: UACC-62 melanoma
UO-31 renal = system: UO-31 renal
OVCAR-4 ovarian = system: OVCAR-4 ovarian
SR leukemia = system: SR leukemia
T-47D breast = system: T-47D breast

SMILES: CN(CC(=O)N1CC(CCl)c2ccc([N+](=O)[O-])cc21)CC(=O)N1CC(CCl)c2ccc([N+](=O)[O-])cc21 (stereo not drawn)
- TGI (786-0 renal): > 100 µM
- TGI (A498 renal): > 100 µM
- TGI (A549 NSCLC): > 100 µM
- TGI (ACHN renal): > 100 µM
- TGI (BT-549 breast): > 100 µM
- TGI (CAKI-1 renal): > 100 µM
- TGI (CCRF-CEM leukemia): > 100 µM
- TGI (COLO 205 colon): > 100 µM
- TGI (DU-145 prostate): > 100 µM
- TGI (EKVX NSCLC): > 100 µM
- TGI (HCC-2998 colon): > 100 µM
- TGI (HCT-116 colon): > 100 µM
- TGI (HCT-15 colon): > 100 µM
- TGI (HL-60(TB) leukemia): > 100 µM
- TGI (HOP-62 NSCLC): > 100 µM
- TGI (HOP-92 NSCLC): > 100 µM
- TGI (HS 578T breast): > 100 µM
- TGI (HT29 colon): > 100 µM
- TGI (IGROV1 ovarian): > 100 µM
- TGI (K-562 leukemia): > 100 µM
- TGI (KM12 colon): > 100 µM
- TGI (LOX IMVI melanoma): > 100 µM
- TGI (M14 melanoma): > 100 µM
- TGI (MALME-3M melanoma): > 100 µM
- TGI (MCF7 breast): > 100 µM
- TGI (MDA-MB-231 breast): > 100 µM
- TGI (MDA-MB-435): > 100 µM
- TGI (MDA-N): > 100 µM
- TGI (MOLT-4 leukemia): > 100 µM
- TGI (NCI-H226 lung): > 100 µM
- TGI (NCI-H23 lung): > 100 µM
- TGI (NCI-H460 lung): > 100 µM
- TGI (NCI-H522 lung): > 100 µM
- TGI (NCI/ADR-RES ovarian): > 100 µM
- TGI (OVCAR-3 ovarian): > 100 µM
- TGI (OVCAR-5 ovarian): > 100 µM
- TGI (OVCAR-8 ovarian): > 100 µM
- TGI (PC-3 prostate): > 100 µM
- TGI (RPMI-8226 leukemia): > 100 µM
- TGI (SF-268 CNS): > 100 µM
- TGI (SF-295 CNS): > 100 µM
- TGI (SF-539 CNS): > 100 µM
- TGI (SK-MEL-2 melanoma): > 100 µM
- TGI (SK-MEL-28 melanoma): > 100 µM
- TGI (SK-MEL-5 melanoma): > 100 µM
- TGI (SK-OV-3 ovarian): > 100 µM
- TGI (SN12C renal): > 100 µM
- TGI (SNB-19 CNS): > 100 µM
- TGI (SNB-75 CNS): > 100 µM
- TGI (SW-620 colon): > 100 µM
- TGI (TK-10 renal): > 100 µM
- TGI (U251 CNS): > 100 µM
- TGI (UACC-257 melanoma): > 100 µM
- TGI (UACC-62 melanoma): > 100 µM
- TGI (UO-31 renal): > 100 µM

SMILES: O=C1N(C2CCCCC2)C(=O)N1C1CCCCC1
- TGI (786-0 renal): > 67.6 µM
- TGI (A498 renal): 2.37 µM
- TGI (A549 NSCLC): > 54.5 µM
- TGI (ACHN renal): 12 µM
- TGI (BT-549 breast): 5.29 µM
- TGI (CAKI-1 renal): 25.2 µM
- TGI (CCRF-CEM leukemia): 2.07 µM
- TGI (COLO 205 colon): 16.2 µM
- TGI (DU-145 prostate): > 58.9 µM
- TGI (EKVX NSCLC): > 100 µM
- TGI (HCC-2998 colon): > 47.3 µM
- TGI (HCT-116 colon): 14.1 µM
- TGI (HCT-15 colon): 22.2 µM
- TGI (HL-60(TB) leukemia): 0.365 µM
- TGI (HOP-62 NSCLC): 31.5 µM
- TGI (HOP-92 NSCLC): 19.5 µM
- TGI (HS 578T breast): 2.93 µM
- TGI (HT29 colon): 25.3 µM
- TGI (IGROV1 ovarian): > 100 µM
- TGI (K-562 leukemia): 13.4 µM
- TGI (KM12 colon): 15.7 µM
- TGI (LOX IMVI melanoma): 11.1 µM
- TGI (M14 melanoma): 20.7 µM
- TGI (MALME-3M melanoma): 11.7 µM
- TGI (MCF7 breast): 48.6 µM
- TGI (MDA-MB-231 breast): 15.6 µM
- TGI (MDA-MB-435): > 81.4 µM
- TGI (MDA-N): 17 µM
- TGI (MOLT-4 leukemia): 10.2 µM
- TGI (NCI-H226 lung): 11.3 µM
- TGI (NCI-H23 lung): 23.8 µM
- TGI (NCI-H460 lung): 30.3 µM
- TGI (NCI-H522 lung): 3.66 µM
- TGI (NCI/ADR-RES ovarian): 14.9 µM
- TGI (OVCAR-3 ovarian): > 100 µM
- TGI (OVCAR-4 ovarian): 31.7 µM
- TGI (OVCAR-5 ovarian): 30.2 µM
- TGI (OVCAR-8 ovarian): 16.6 µM
- TGI (PC-3 prostate): > 45.7 µM
- TGI (RPMI-8226 leukemia): 0.935 µM
- TGI (SF-268 CNS): 40.2 µM
- TGI (SF-295 CNS): 14.3 µM
- TGI (SF-539 CNS): 45.1 µM
- TGI (SK-MEL-2 melanoma): 85.5 µM
- TGI (SK-MEL-28 melanoma): 20.7 µM
- TGI (SK-MEL-5 melanoma): 4.88 µM
- TGI (SK-OV-3 ovarian): 59.9 µM
- TGI (SN12C renal): 16.1 µM
- TGI (SNB-19 CNS): 29.9 µM
- TGI (SNB-75 CNS): > 100 µM
- TGI (SR leukemia): 8.83 µM
- TGI (SW-620 colon): 26.4 µM
- TGI (T-47D breast): 17.4 µM
- TGI (TK-10 renal): 38.5 µM
- TGI (U251 CNS): 18.7 µM
- TGI (UACC-257 melanoma): 19.4 µM
- TGI (UACC-62 melanoma): 1.9 µM
- TGI (UO-31 renal): 0.199 µM

Source: PubChem BioAssay (NCI)
